Measurements published in PMC10587081, “Biochemical and structural basis of mercuric reductase, GbsMerA, from Gelidibacter salicanalis PAMC21136” (Scientific Reports, 2023).

How the values were obtained:
GbsMerA = molecular target: T1, GbsMerA (Gelidibacter salicanalis, UniProt A0A934NG65); assay: X-ray crystal structure; type: binding
T1 construct: gene JEM65_00875; full length, 449 aa, pET32a(+) (BamHI/XhoI), N-terminal His6 tag and vector tag cleaved with enterokinase, E. coli BL21, SEC, homodimer with non-covalent FAD; no NmerA domain and no C-terminal Cys-Cys motif; primers encode N-terminus MKEYDV and C-terminus IPHML
T1 sequence (A0A934NG65 1-448): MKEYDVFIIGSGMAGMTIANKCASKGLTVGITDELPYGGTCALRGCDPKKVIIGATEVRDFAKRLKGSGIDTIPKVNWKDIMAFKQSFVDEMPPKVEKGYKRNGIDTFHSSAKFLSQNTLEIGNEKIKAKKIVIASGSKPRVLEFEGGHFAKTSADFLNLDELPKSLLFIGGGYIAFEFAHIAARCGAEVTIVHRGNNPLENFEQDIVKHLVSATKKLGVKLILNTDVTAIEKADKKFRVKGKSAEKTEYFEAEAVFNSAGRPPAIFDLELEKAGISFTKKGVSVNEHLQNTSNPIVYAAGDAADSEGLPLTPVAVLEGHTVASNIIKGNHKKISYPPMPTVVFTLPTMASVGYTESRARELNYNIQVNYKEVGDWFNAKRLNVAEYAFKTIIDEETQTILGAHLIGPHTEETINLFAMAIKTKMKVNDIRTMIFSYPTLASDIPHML

[1] = molecular target: mercuric reductase GbsMerA from Gelidibacter salicanalis PAMC21136 (Gelidibacter salicanalis PAMC21136); assay: crystal structure; sitting drop vapor diffusion at 22 °C; GbsMerA 35 mg/mL with 1.6 M sodium phosphate monobasic/0.4 M potassium phosphate dibasic, 0.1 M sodium phosphate dibasic/citric acid pH 4.2; homodimer in the asymmetric unit

## Cc1cc2nc3c(=O)[nH]c(=O)nc-3n(C[C@H](O)[C@H](O)[C@H](O)COP(=O)(O)OP(=O)(O)OC[C@H]3O[C@@H](n4cnc5c(N)ncnc54)[C@H](O)[C@@H]3O)c2cc1C [FAD]
GbsMerA; 2.6 Å, non-covalently bound FAD in FAD-binding domain, crystallised at pH 4.2 (phosphate/citrate)
  X-ray crystal structure: Non-covalently bound FAD is located in the central region of the FAD-binding domain

## NC(=O)C1=CN([C@@H]2O[C@H](COP(=O)(O)OP(=O)(O)OC[C@H]3O[C@@H](n4cnc5c(N)ncnc54)[C@H](OP(=O)(O)O)[C@@H]3O)[C@@H](O)[C@H]2O)C=CC1 [NADPH]
GbsMerA; complex with FAD and NADPH, bicine/Trizma pH 8.5, re-face of the FAD isoalloxazine ring
  X-ray crystal structure: Furthermore, we determined the GbsMerA–NADPH complex structure.

## mercuric reductase GbsMerA from Gelidibacter salicanalis PAMC21136 (enzyme)
[1]
  stoichiometry N: 2
